Results on five molecules are retold here after US20030083336A1, “Phenylpiperazinyl derivatives” (H. Lundbeck A/S, priority 1999, published 2003).

The target of one data set is T1, D4 receptor (Homo sapiens, UniProt P21917).
T1 sequence (P21917 1-419): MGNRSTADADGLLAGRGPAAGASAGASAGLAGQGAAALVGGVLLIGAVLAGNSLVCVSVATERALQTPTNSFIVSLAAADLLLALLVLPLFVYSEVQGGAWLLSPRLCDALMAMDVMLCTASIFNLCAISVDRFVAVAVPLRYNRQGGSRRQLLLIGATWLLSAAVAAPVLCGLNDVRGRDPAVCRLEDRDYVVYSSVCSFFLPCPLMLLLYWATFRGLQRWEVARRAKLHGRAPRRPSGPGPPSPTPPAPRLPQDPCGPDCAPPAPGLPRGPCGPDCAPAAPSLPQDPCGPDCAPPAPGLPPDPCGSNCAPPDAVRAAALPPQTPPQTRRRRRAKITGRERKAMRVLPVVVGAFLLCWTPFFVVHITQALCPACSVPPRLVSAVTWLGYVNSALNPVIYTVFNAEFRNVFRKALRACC
Conditions: various in vitro efficacy assays; cited from earlier work.

The target of data set [1] is T2, human cloned dopamine D4.2 receptors (Homo sapiens, UniProt P21917, DEL265-296).
T2 construct: expressed in transfected cells; host or cells: CHO cells
T2 sequence (P21917 with tags, fused parts or gaps DEL265-296): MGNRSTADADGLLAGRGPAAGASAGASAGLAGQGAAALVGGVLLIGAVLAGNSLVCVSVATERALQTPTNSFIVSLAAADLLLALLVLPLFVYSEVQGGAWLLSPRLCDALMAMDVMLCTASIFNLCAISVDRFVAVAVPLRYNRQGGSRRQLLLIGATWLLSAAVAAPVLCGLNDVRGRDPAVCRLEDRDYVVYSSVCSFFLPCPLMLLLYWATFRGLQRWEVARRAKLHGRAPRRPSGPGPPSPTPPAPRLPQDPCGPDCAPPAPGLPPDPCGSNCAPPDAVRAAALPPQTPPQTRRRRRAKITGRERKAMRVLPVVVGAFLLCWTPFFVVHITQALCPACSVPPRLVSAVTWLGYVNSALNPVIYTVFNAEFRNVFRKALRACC
Briefly: Inhibition of the binding of 3H-YM-09151-2 to human dopamine D4 receptors. Conditions: [3H]YM-09151-2 0.06 nM, membranes of CHO-cells; read-out: D4-bind. IC50. As to the method: Inhibition of the Binding of ^3H-YM-09151-2 to Human Dopamine D4 Receptors
By this method the inhibition by drugs of the binding of [^3H]YM-09151-2 (0.06 nM) to membranes of human cloned dopamine D4.2 receptors expressed in CHO-cells is determined in vitro. Method modified from NEN Life Science Products, Inc., technical data certificate PC2533-10/96. The results are given in the following Table 1 as IC50-values or as percent inhibition of the binding of ^3H-YM-09151 -2 at the concentration of the test compound indicated.

The target in data set [2] is T3, human cloned dopamine D3 receptors (Homo sapiens, UniProt P35462).
T3 construct: expressed in transfected cells; host or cells: CHO cells
T3 sequence (P35462 whole entry): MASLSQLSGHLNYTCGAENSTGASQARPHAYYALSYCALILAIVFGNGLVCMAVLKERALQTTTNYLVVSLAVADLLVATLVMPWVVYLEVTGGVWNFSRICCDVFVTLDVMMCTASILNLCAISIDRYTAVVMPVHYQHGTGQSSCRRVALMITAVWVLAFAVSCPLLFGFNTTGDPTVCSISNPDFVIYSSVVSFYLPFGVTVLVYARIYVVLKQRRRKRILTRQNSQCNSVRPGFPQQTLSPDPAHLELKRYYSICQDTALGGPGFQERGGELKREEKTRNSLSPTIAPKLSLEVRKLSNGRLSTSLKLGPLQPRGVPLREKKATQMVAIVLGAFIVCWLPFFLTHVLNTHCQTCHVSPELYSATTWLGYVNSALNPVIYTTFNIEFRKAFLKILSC
Briefly: Inhibition of the binding of [3H]-Spiperone to human D3 receptors. To be noted: [3H]Spiperone 0.3 nM, membranes of CHO-cells; read-out: D3-bind. IC50. As to the method:
Inhibition of the Binding of [^3H]-Spiperone to Human D3 Receptors
By this method the inhibition by drugs of the binding [^3H]Spiperone (0.3 nM) to membranes of human cloned dopamine D3 receptors expressed in CHO-cells is determined in vitro. Method modified from R. G. MacKenzie et al. Eur. J. Pharm.-Mol. Pharm. Sec. 1994, 266, 79-85. The results are given in the following Table 1 as IC50-values or as percent inhibition of the binding of ^3H-Spiperone at the concentration of the test compound indicated.

Structures can show the parent of a compound that is named as a salt.

As for `CC(C)Oc1cccnc1N(C)C1CCN(Cc2ccccc2)CC1` [Compound U-101958], on D4 receptor, the “Functional activity at D4 receptor (literature)” value is listed as “partial D4 receptor agonists”. One may read the melting point as the temperature, or range, at which the solid turns liquid. Consider `Cc1c(N2CCOCC2)cccc1N1CCN(CCCc2c[nH]c3ccc(F)cc23)CC1` (as salt: HCl) [Compound 1d, 1-[2-methyl-3-(morpholin-4-yl)phenyl]-4-[3-(5-fluoro-1H-indol-3-yl)propyl]piperazine], for which the melting point is 212 to 215 °C. By IC50 is commonly meant the point on the concentration scale where inhibition reaches its midpoint. Turning to `Cc1c(N2CCOCC2)cccc1N1CCN(CCCCc2c[nH]c3ccc(F)cc23)CC1` [Compound 1e, 1-[2-metlyl-3-(morpholin-4-yl)phenyl]-4-[4-(5-fluoro-1H-indol-3-yl)butyl]piperazine], the melting point is 112 to 114 °C. In addition, the IC50 in data set [1] turned out to be 14 nM. Moreover, the IC50 in data set [2] is 63 nM. `Cc1c(N2CCOCC2)cccc1N1CCN(CCCc2c[nH]c3ccccc23)CC1` (hydrate or solvate) [Compound 1b, 1-[3-(1H-Indol-3-yl)propyl]-4-[2-methyl-3-(morpholin-4-yl)-phenyl]piperazine] displayed a melting point of 112 to 113 °C. Molecule `Cc1c(N2CCOCC2)cccc1N1CCN(CCCCc2c[nH]c3ccccc23)CC1` [Compound 1c, 1-[2-methyl-3-(morpholin-4-yl)phenyl]-4-[4-(1H-indol-3-yl)butyl]piperazine] had a melting point of 111 to 113 °C. Besides, the IC50 in data set [1] worked out at 15 nM. Also, in data set [2], the IC50 was found to be 130 nM.
